According to ChEMBL document CHEMBL5614391, “GPX4 allosteric activators inhibit ferroptosis and exert myocardial protection in doxorubicin-induced myocardial injury mouse model” (Eur J Med Chem, 2024):

Columns and labels:
[1] = target: T1, Phospholipid hydroperoxide glutathione peroxidase GPX4 (Homo sapiens, UniProt P36969); assay: Binding affinity to GPX4 (unknown origin) assessed as dissociation constant by surface plasmon resonance
T1 sequence (P36969 whole entry): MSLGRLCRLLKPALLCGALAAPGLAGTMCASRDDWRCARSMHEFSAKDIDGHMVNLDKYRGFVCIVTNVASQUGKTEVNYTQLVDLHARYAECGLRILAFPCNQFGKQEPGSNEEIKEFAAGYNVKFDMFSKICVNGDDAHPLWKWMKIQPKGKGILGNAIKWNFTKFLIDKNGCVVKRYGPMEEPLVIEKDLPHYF

HT-1080 = assay: Reversal of erastin induced cell death in human HT-1080 cells assessed as cell viability preincubated for 1 hr followed by erastin addition and measured after 24 hrs by CCK8 method

Row | SMILES | Kd [1] [µM] | EC50 (HT-1080) [µM]
1 | COc1ccc(NCc2cccn2-c2nnc(N3CCCCC3)s2)cc1OC | 5.69 | –
2 | COc1ccc(NCc2cccn2-c2nnc(N3CCOCC3)s2)cc1OC | 27.1 | –
3 | COc1ccc(NCc2cccn2-c2nnc(N3CCOCC3)s2)c(OC)c1 | 10.5 | –
4 | COc1ccc(NCc2cccn2-c2nn3ccnc3s2)c(OC)c1 | 0.717 | –
5 | COc1ccc(NCc2cccn2-c2nnc(C)s2)cc1OC | 4.48 | –
6 | COc1ccc(NCc2cccn2-c2nnc(N(C)C)s2)cc1OC | 5.22 | –
7 | CCCN1CCN(c2nnc(-n3cccc3CNc3ccc(OC)c(OC)c3)s2)CC1 | 0.036 | –
8 | COc1ccc(NCc2cccn2-c2nnc(NC(=O)c3cccc(F)c3)s2)cc1OC | 0.931 | –
9 | COc1ccc(NCc2cccn2-c2nnc(N3CCN(C)CC3)s2)cc1OC | 5.86 | 19.2
10 | COc1ccc(NCc2cccn2-c2ccc(Cl)cc2)cc1OC | 1.14 | –
11 | CCOc1cc(NCc2cccn2-c2nnc(N3CCN(C)CC3)s2)ccc1OC | 10.7 | –
12 | COc1ccc(NCc2cccn2-c2cccc(Cl)n2)cc1OC | 1.05 | –
13 | COc1ccc(NCc2cc3ccccc3n2-c2nnc(N3CCN(C)CC3)s2)cc1OC | 4.06 | –
14 | CN1CCN(c2nnc(-n3cccc3CNc3ccc4c(c3)OCCO4)s2)CC1 | 0.835 | –
15 | COc1ccc(NCc2cccn2-c2nn3ccnc3s2)cc1OC | 4.23 | –
16 | CCN(CC)c1nnc(-n2cccc2CNc2ccc(OC)c(OC)c2)s1 | 9.8 | –
17 | COc1ccc(NCc2cccn2-c2nnc(NC(=O)c3ccc(F)cc3)s2)cc1OC | 4.69 | –
18 | COc1ccc(NCc2cccn2-c2nc3ccccc3s2)cc1OC | 4.99 | –
19 | COc1ccc(NCc2cccn2-c2nnc(N3CCN(C)CC3)s2)c(OC)c1 | 0.426 | 7.8
20 | COc1ccc(NCc2ccnn2-c2nnc(N3CCN(C)CC3)s2)cc1OC | 4.64 | –
21 | COc1ccc(NCc2cccn2-c2nnc(N)s2)cc1OC | 0.17 | –
22 | COc1ccc(NCc2cccn2-c2nnc(NC(=O)c3ccccc3F)s2)cc1OC | 10.5 | –
23 | COc1ccc(NCc2cccn2-c2ccc(N3CCN(C)CC3)s2)cc1OC | 6.9 | –
24 | COc1ccc(NCc2cncn2-c2nnc(N3CCN(C)CC3)s2)cc1OC | 3.43 | –
25 | COc1ccc(NCc2cccn2-c2cnc(C)s2)cc1OC | 8.24 | –
26 | COc1ccc(NCc2cccn2-c2nncs2)cc1OC | 7.91 | –
27 | COc1ccc(NCc2cccn2-c2cccc(N3CCN(C)CC3)n2)cc1OC | 2.1 | –
28 | COc1ccc(NCc2cccn2-c2nnc(N3CCN(C)CC3)s2)cc1 | 7.87 | –
29 | COc1ccc(NCc2cccn2-c2nnc(NC(=O)c3ccccc3)s2)cc1OC | 1.27 | –
